Results on 19 molecules are retold here after US8916702B2 (priority 2012, dated 2014).

For orientation: EC50 means the concentration that produces a half-maximal response.

One assay concerns HCV pseudoparticles (genotype 1a HCV E1 and E2 envelope, H77C isolate). Briefly: microbe, parasite or virus in culture. The following applies: Hepatitis C virus, Huh-7, 48 h, HCV pseudoparticle infection of Huh7 cells, luciferase 2 days after infection; average of duplicates. In kind it is cell-based.
Regarding `O=C(NCC[C@H](NC(=O)c1ccc(Nc2nc(NC3(c4ccc(Cl)cc4)CC3)nc(OCC(F)(F)F)n2)cc1)C(=O)O)C(=O)Nc1ccccn1` [Compound 1279], the EC50 is 1.29 nM.

Consider `COC(=O)[C@H](CNC(=O)C(=O)NCCc1cccnc1)NC(=O)c1ccc(Nc2nc(NC3(c4ccc(Cl)cc4)CC3)nc(OCC(F)(F)F)n2)cc1` [Compound 1293], for which the EC50 amounted to 4.4 nM.

Still in this assay, the particulars now being: Hepatitis C virus, Huh-7, 48 h, read-out: Activity (EC50 class), HCV pseudoparticle infection of Huh7 cells, luciferase 2 days after infection; EC50 expressed as class A/B.
Turning to `O=C(NCC[C@H](NC(=O)c1ccc(Nc2nc(NC3(c4ccc(Cl)cc4)CC3)nc(OCC(F)(F)F)n2)cc1)C(=O)O)C(=O)Nc1ccncc1` [Compound 1278], the EC50 was 0.01 to 10 nM.

With `O=C(NCC[C@H](NC(=O)c1ccc(Nc2nc(NC3(c4ccc(Cl)cc4)CC3)nc(OCC(F)(F)F)n2)cc1)C(=O)O)C(=O)Nc1ccccn1` [Compound 1279], the EC50 was 0.01 to 10 nM.

Regarding `O=C(NCC[C@H](NC(=O)c1ccc(Nc2nc(NC3(c4ccc(Cl)cc4)CC3)nc(OCC(F)(F)F)n2)cc1)C(=O)O)C(=O)Nc1cccnc1` [Compound 1280], the EC50 was in the range of 0.01 to 10 nM.

`Cn1nccc1NC(=O)C(=O)NCC[C@H](NC(=O)c1ccc(Nc2nc(NC3(c4ccc(Cl)cc4)CC3)nc(OCC(F)(F)F)n2)cc1)C(=O)O` [Compound 1281]: the EC50 fell in the range of 0.01 to 10 nM.

With `COC(=O)[C@H](CNC(=O)C(=O)NCCc1ccccn1)NC(=O)c1ccc(Nc2nc(NC3(c4ccc(Cl)cc4)CC3)nc(OCC(F)(F)F)n2)cc1` [Compound 1282], the EC50 lay within 0.01 to 10 nM.

As for `COC(=O)[C@H](CNC(=O)C(=O)NCC(C)c1ccccc1)NC(=O)c1ccc(Nc2nc(NC3(c4ccc(Cl)cc4)CC3)nc(OCC(F)(F)F)n2)cc1` (stereo partly drawn) [Compound 1283], the EC50 was in the range of 0.01 to 10 nM.

As for `COC(=O)[C@H](CNC(=O)C(=O)NCCc1ccccc1)NC(=O)c1ccc(Nc2nc(NC3(c4ccc(Cl)cc4)CC3)nc(OCC(F)(F)F)n2)cc1` [Compound 1284], the EC50 was in the range of 0.01 to 10 nM.

Regarding `COC(=O)[C@H](CNC(=O)C(=O)NCCc1ccccc1OC)NC(=O)c1ccc(Nc2nc(NC3(c4ccc(Cl)cc4)CC3)nc(OCC(F)(F)F)n2)cc1` [Compound 1285], the EC50 was in the range of 0.01 to 10 nM.

With `COC(=O)[C@H](CNC(=O)C(=O)NCCc1cccc(OC)c1)NC(=O)c1ccc(Nc2nc(NC3(c4ccc(Cl)cc4)CC3)nc(OCC(F)(F)F)n2)cc1` [Compound 1286], the EC50 was in the range of 0.01 to 10 nM.

Turning to `COC(=O)[C@H](CNC(=O)C(=O)NCCc1ccc(OC)cc1)NC(=O)c1ccc(Nc2nc(NC3(c4ccc(Cl)cc4)CC3)nc(OCC(F)(F)F)n2)cc1` [Compound 1287], the EC50 is 0.01 to 10 nM.

For the molecule `COC(=O)[C@H](CNC(=O)C(=O)NCCc1ccncc1)NC(=O)c1ccc(Nc2nc(NC3(c4ccc(Cl)cc4)CC3)nc(OCC(F)(F)F)n2)cc1` [Compound 1288], the EC50 lay within 0.01 to 10 nM.

With `COC(=O)[C@H](CNC(=O)C(=O)NCCc1cccc(F)c1)NC(=O)c1ccc(Nc2nc(NC3(c4ccc(Cl)cc4)CC3)nc(OCC(F)(F)F)n2)cc1` [Compound 1289], the EC50 was 0.01 to 10 nM.

With `COC(=O)[C@H](CNC(=O)C(=O)NCCc1ccccc1F)NC(=O)c1ccc(Nc2nc(NC3(c4ccc(Cl)cc4)CC3)nc(OCC(F)(F)F)n2)cc1` [Compound 1290], the EC50 was in the range of 0.01 to 10 nM.

Regarding `COC(=O)[C@H](CNC(=O)C(=O)NC1Cc2ccccc2C1)NC(=O)c1ccc(Nc2nc(NC3(c4ccc(Cl)cc4)CC3)nc(OCC(F)(F)F)n2)cc1` [Compound 1291], the EC50 is 0.01 to 10 nM.

As to `COC(=O)[C@H](CNC(=O)C(=O)NCCc1ccc(F)cc1)NC(=O)c1ccc(Nc2nc(NC3(c4ccc(Cl)cc4)CC3)nc(OCC(F)(F)F)n2)cc1` [Compound 1292], the EC50 lay within 0.01 to 10 nM.

As to `COC(=O)[C@H](CNC(=O)C(=O)NCCc1cccnc1)NC(=O)c1ccc(Nc2nc(NC3(c4ccc(Cl)cc4)CC3)nc(OCC(F)(F)F)n2)cc1` [Compound 1293], the EC50 was in the range of 0.01 to 10 nM.

`COC(=O)[C@H](CNC(=O)C(=O)N[C@H]1C[C@H]1c1ccccc1)NC(=O)c1ccc(Nc2nc(NC3(c4ccc(Cl)cc4)CC3)nc(OCC(F)(F)F)n2)cc1` [Compound 1294]: the EC50 was 0.01 to 10 nM.

`COC(=O)[C@H](CNC(=O)C(=O)NCCc1c[nH]cn1)NC(=O)c1ccc(Nc2nc(NC3(c4ccc(Cl)cc4)CC3)nc(OCC(F)(F)F)n2)cc1` [Compound 1295]: the EC50 was in the range of 10 to 1000 nM.

As to `COC(=O)[C@H](CNC(=O)C(=O)NC(C)(C)Cc1ccc(F)cc1)NC(=O)c1ccc(Nc2nc(NC3(c4ccc(Cl)cc4)CC3)nc(OCC(F)(F)F)n2)cc1` [Compound 1296], the EC50 is 0.01 to 10 nM.
